From patent US20260069588A1, “VEPDEGESTRANT FOR USE IN TREATING CANCER” (Arvinas Operation, Inc., priority 2022, published 2026)
Values joined by “and” are separate entries in the source; they are usually repeats but may differ in a detail not shown here. Equal values may be shown once.

Columns and labels:
[1] = FIH Study Part B dose expansion (VERITAC): adverse events
Protocol: Study Design: In the FIH Study: Part A is a Phase I monotherapy dose escalation, and Part B is a Phase 2 monotherapy expansion at 2 RP2D doses (200 mg QD, 500 mg QD).
TEAEs and TRAEs from the clinical study database were coded to system organ class and preferred term using MedDRA version 22.0 and SAEs from the centralized safety database were coded using MedDRA version 25.0. The severity of adverse events was graded according to the NCI CTCAE version 5.0.

[2] = test system: BALB/c 3T3 mouse fibroblasts; test: In vitro 3T3 phototoxicity; type: cell-based
[3] = 7-day oral dose range finding toxicity study in rats; type: in vivo; conditions: rat, up to 300 mg/kg/day, 7 days
Excerpt: Noteworthy findings were changes in the female reproductive organs, including in the ovaries (minimal to moderate increased size of tertiary follicles, retained corpora lutea, and minimal to moderate interstitial cell hypertrophy), uterus (atrophy) and vagina (mucosa atrophy).

[4] = rat, in vivo
BCRP = BCRP (Homo sapiens, UniProt Q9UNQ0); test: Efflux transporter substrate assessment (inside-out vesicular assay), BCRP; type: in vitro ADME
Chain of BCRP (Q9UNQ0 whole entry): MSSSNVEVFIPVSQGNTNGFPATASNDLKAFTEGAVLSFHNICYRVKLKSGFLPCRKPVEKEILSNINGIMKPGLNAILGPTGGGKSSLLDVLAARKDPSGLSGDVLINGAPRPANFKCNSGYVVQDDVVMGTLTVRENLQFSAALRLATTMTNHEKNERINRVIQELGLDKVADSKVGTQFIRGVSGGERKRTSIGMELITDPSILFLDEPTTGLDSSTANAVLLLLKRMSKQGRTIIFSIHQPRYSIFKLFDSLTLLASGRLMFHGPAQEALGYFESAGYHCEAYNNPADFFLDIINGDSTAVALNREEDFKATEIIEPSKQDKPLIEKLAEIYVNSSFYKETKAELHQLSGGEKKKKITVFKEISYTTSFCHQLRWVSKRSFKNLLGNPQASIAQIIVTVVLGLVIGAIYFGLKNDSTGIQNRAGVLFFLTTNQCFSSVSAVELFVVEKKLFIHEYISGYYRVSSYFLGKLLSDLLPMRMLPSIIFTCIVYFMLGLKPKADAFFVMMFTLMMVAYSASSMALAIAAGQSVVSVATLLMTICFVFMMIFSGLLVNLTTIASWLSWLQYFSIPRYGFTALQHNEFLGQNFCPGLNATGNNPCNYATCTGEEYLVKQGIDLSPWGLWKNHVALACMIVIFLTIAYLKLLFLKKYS

[5] = Clinical Pharmacology Study Fed/Fasted cohort: food effect on single-dose PK; type: in vivo, human; conditions: 200 mg single dose
Excerpt: Study Design: The Clinical Pharmacology Study consists of 3 independent cohorts: 1) an open-label, randomized, 2-period, crossover Fed/Fasted cohort to determine food effects; 2) an open-label, 2-period, fixed sequence PPI cohort to evaluate interactions with esomeprazole; and 3) an open-label, randomized, 2 period, crossover rBA cohort to evaluate 2 tablet formulations.
Compound A should be taken with food.

Caco-2 cells = test: Caco-2 bidirectional permeability; type: in vitro ADME; conditions: 11.25 μM
[6] = Caco-2 bidirectional permeability; type: in vitro ADME; conditions: human, Caco-2, 1.125 pM
[7] = Clinical Pharmacology Study: single 200 mg dose PK, all 3 cohorts; conditions: human, in vivo, oral
Protocol: The geometric mean T1/2 following a single 200 mg dose was approximately 40 hours under fed condition.

MCF7/estradiol xenograft = MCF7/estradiol xenograft tumor growth inhibition; type: in vivo, mouse
Protocol: (§1) The 30 mg/kg dose was associated with a mean AUC0-24 of 5,717 ng·h/mL. The tumor ER levels were reduced by ≥94% at all doses compared to mice administered vehicle only (FIG. 3B).
(§2) The 30 mg/kg dose was associated with a mean AUC0-24 of 5,717 ng·h/mL.

[8] = MCF7/estradiol xenograft tumor growth inhibition; type: in vivo, mouse; conditions: in vivo, oral; mouse, 30 mg/kg; read-out: mean AUC0-24
Protocol: as §1, §2

[9] = 200 mg QD n=35, Nov. 1, 2022, grade 1/2

O=C1CC[C@H](N2Cc3cc(N4CCN(CC5CCN(c6ccc([C@@H]7c8ccc(O)cc8CC[C@@H]7c7ccccc7)cc6)CC5)CC4)ccc3C2=O)C(=O)N1 [Compound A, (S)-3-(5-(4-((1-(4-((1R,2S)-6-hydroxy-2-phenyl-1,2,3,4-tetrahydronaphthalen-1-yl)phenyl)piperidin-4-yl)methyl)piperazin-1-yl)-1-oxoisoindolin-2-yl)piperidine-2,6-dione] gave a TRAE Arthralgia [1, 9] of 11%, a TRAE Fatigue [1, 9] of 40% and a TRAE Nausea [1, 9] of 14%. For the same compound, the TRAE hot flush [1, 9] was 17%, the “TRAE increased aspartate aminotransferase” value [1, 9] was 11% and the “Grade 5 TRAEs” value ([1]; 6 Jun 2023) was “no Grade 5 TRAEs”. The “Grade 1 TEAEs” value ([1]; 6 Jun 2023, N=71) was 22.5%, the “Grade 1 TRAEs” value ([1]; 6 Jun 2023, N=71) was 29.6% and the “Grade 2 TEAEs” value ([1]; 6 Jun 2023, N=71) was 33.8%. For the same compound, the “Grade 2 TRAEs” value ([1]; 6 Jun 2023, N=71) was 38.0%, the “Grade 3 TEAEs” value ([1]; 6 Jun 2023, N=71) was 28.2% and the “Grade 3 TRAE electrocardiogram QT prolonged” value ([1]; 6 Jun 2023, N=71) was 1.4%. The “Grade 4 TEAEs” value ([1]; 6 Jun 2023, N=71) was 2.8%, the “Grade 5 TEAE” value ([1]; 6 Jun 2023, N=71) was 1.4% and the TEAE Arthralgia ([1]; 6 Jun 2023, N=71) was 21.1%. The “TEAE Aspartate aminotransferase increased” value ([1]; 6 Jun 2023, N=71) was 12.7%, the TEAE Back pain ([1]; 6 Jun 2023, N=71) was 11.3% and the TEAE Constipation ([1]; 6 Jun 2023, N=71) was 19.7%. For the same compound, the TEAE Decreased appetite ([1]; 6 Jun 2023, N=71) was 15.5%, the TEAE Headache ([1]; 6 Jun 2023, N=71) was 11.3% and the TEAE Nausea ([1]; 6 Jun 2023, N=71) was 26.8%. For the same compound, the TEAE anemia ([1]; 6 Jun 2023, N=71) was 14.1%, the TEAE hot flush ([1]; 6 Jun 2023, N=71) was 14.1% and the TRAE Arthralgia ([1]; 6 Jun 2023, N=71) was 14.1%. The TRAE Fatigue ([1]; 6 Jun 2023, N=71) was 36.6%, the TRAE Nausea ([1]; 6 Jun 2023, N=71) was 21.1% and the TRAE hot flush ([1]; 6 Jun 2023, N=71) was 12.7%. The “patients with TRAEs of Grade ≥3” value ([1]; 6 Jun 2023, N=71) was 7.0%, the “patients with at least 1 TEAE” value ([1]; 6 Jun 2023, N=71) was 88.7% and the “patients with at least 1 TRAE” value ([1]; 6 Jun 2023, N=71) was 76.1%. For the same compound, the SAEs ([1]; 6 Jun 2023, N=71, 10) was 14.1%, the deaths ([1]; 14 of 71 participants) was 19.7% and the “SAE Seizure, Grade” value ([1]; Patient 1, onset day 263, Not related) was 3. The “SAE Intestinal obstruction, Grade” value ([1]; Patient 2, onset day 85, Not related) was 3, the “SAE Muscular weakness, Grade” value ([1]; Patient 3, onset day 165, Not related) was 3 and the “SAE Back pain, Grade” value ([1]; Patient 3, onset day 196) was 2. The “SAE Hepatic hemorrhage, Grade” value ([1]; Patient 4, onset day 55, Not related) was 4, the “SAE Hypercalcemia, Grade” value ([1]; Patient 5, onset day 53, Not related) was 4 and the “SAE Anemia, Grade” value ([1]; Patient 6, Not related) was 3. For the same compound, the “SAE Cholangitis, Grade” value ([1]; Patient 6, Not related) was 3, the “SAE Thrombocytopenia, Grade” value ([1]; Patient 6, Possibly related, SUSAR) was 3 and the “SAE Hyperbilirubinemia, Grade” value ([1]; Patient 6, onset day 15, Possibly related, SUSAR) was 4. For the same compound, the “SAE Acute respiratory failure, Grade” value ([1]; Patient 6, onset day 19, Unlikely related) was 5, the “SAE Upper gastrointestinal hemorrhage, Grade” value ([1]; Patient 7, onset day 36, Not related) was 3 and the “SAE Spinal cord compression, Grade” value ([1]; Patient 8, onset day 22, Not related) was 3. For the same compound, the “SAE Pyrexia, Grade” value ([1]; Patient 9, onset day 27, Not related) was 3, the “Grade 5 TRAEs” value ([1]; cut-off 6 Jun 2022) was “no Grade 5 TRAEs” and the “patients reporting SAEs” value ([1]; cut-off 6 Jun 2022) was 9 of 71 patients. The “total SAEs” value ([1]; cut-off 6 Jun 2022) was 14 SAEs, the “Grade 1 TEAEs” value ([1]; cut-off 6 Jun 2022, N=71) was 29.6% and the “Grade 1 TRAEs” value ([1]; cut-off 6 Jun 2022, N=71) was 33.8%. For the same compound, the “Grade 2 TEAEs” value ([1]; cut-off 6 Jun 2022, N=71) was 35.2%, the “Grade 2 TRAEs” value ([1]; cut-off 6 Jun 2022, N=71) was 31.0% and the “Grade 3 TEAE of anemia” value ([1]; cut-off 6 Jun 2022, N=71) was 2 patients. For the same compound, the “Grade 3 TEAEs” value ([1]; cut-off 6 Jun 2022, N=71) was 18.3%, the “Grade 4 TEAEs” value ([1]; cut-off 6 Jun 2022, N=71) was 2.8% and the “Grade 4 TRAE of hyperbilirubinemia” value ([1]; cut-off 6 Jun 2022, N=71) was 1. For the same compound, the “Grade 5 TEAE” value ([1]; cut-off 6 Jun 2022, N=71) was 1.4%, the “TEAEs of Grade ≥3” value ([1]; cut-off 6 Jun 2022, N=71) was 22.5% and the “patients with TRAEs of Grade ≥3” value ([1]; cut-off 6 Jun 2022, N=71) was 7.0%. The “patients with at least 1 TEAE” value ([1]; cut-off 6 Jun 2022, N=71) was 87.3%, the “patients with at least 1 TRAE” value ([1]; cut-off 6 Jun 2022, N=71) was 71.8% and the “TEAE leading to discontinuation” value ([1]; four of 71 patients) was 5.6%. The phototoxicity [2] was “not phototoxic”, the tolerability [3] was “well tolerated” and the “developmental NOAEL” value [4] was “could not be established”. For the same compound, the “substrate of BCRP” value (BCRP) was “unlikely to be a substrate”, the “increase of AUCinf by high-fat meal” value [5] was 125% and the “increase of AUCinf by high-fat meal vs fasted” value [5] was 2.2 fold and 2 fold. The “increase of Cmax by high-fat meal” value [5] was 184%, the “increase of Cmax by high-fat meal vs fasted” value [5] was 2.8 fold and 3 fold and the bidirectional permeability (Caco-2 cells) was “Similarly low bidirectional permeability”. For the same compound, the Papp A→B at 1.125 pM ([6]; read-out: permeability apical to basolateral) was 1.33 ×10⁻⁶ cm/s, the Papp B→A at 1.125 pM ([6]; read-out: permeability basolateral to apical) was 0.08 ×10⁻⁶ cm/s and the half-life ([7]; fed, read-out: geometric mean T1/2 (converted)) was roughly 40 h. It also gave a Tmax ([7]; read-out: median Tmax across cohorts) of 6 to 8 h, a TGI (MCF7/estradiol xenograft; 3 mg/kg PO QD 28 days) of 85% and a TGI (MCF7/estradiol xenograft; 10 mg/kg PO QD 28 days) of 98%. For the same compound, the TGI (MCF7/estradiol xenograft; 30 mg/kg PO QD 28 days) was 124% and the AUC(0-t) [8] was 5720 ng·h/mL.
